Experiments:
[1] = tested on: hyperplastic patterns in prostate tissue of BPH rats; assay: Histology (H&E) of prostate tissue of BPH rats; assay type: in vivo, Wistar rats; details: finasteride group 1 mg/kg
Method: (§1) BPH was induced in rats using testosterone 5 mg/kg subcutaneously and a simultaneous treatment with different doses of saw palmetto preparations viz. Saw palmetto oil (SPO) and the inventive composition (200 and 400 mg/kg b.w.) or Finasteride (1 mg/kg b.w.) p.o., was followed for 21 days (Table 1). The inventive composition (VISPO) was a composition of saw palmetto oil having 3% β-sitosterol. At the end of the treatment period, blood was collected prior to the necropsy. Animals were sacrificed by overdose of anesthetics. The vital parameters such as prostate weight, prostate weight to body weight ratio, growth inhibition of prostate, serum testosterone level, expression of inflammatory and apoptotic proteins in prostate tissue were evaluated.
The prostate tissue samples were fixed in 4% formalin, dehydrated with a graded alcohol series, embedded in paraffin, and then cut into 4 μm thickness. The sections were stained with hematoxylin and eosin (H&E, Sigma-Aldrich, St. Louis, MO, USA). The images were captured using a microscope (Leica, Germany).

BPH model rats = assay: Prostate growth in testosterone induced BPH rats; assay type: in vivo, Wistar rats
Method: Forty-two male Wistar rats (10 week old) were purchased from Biogen, Bangalore, India (CPCSEA Reg. No. 971/bc/06). The animals were housed in accordance with the CPCSEA (Committee for the Purpose of Control and Supervision of Experiments on Animals) guidelines. After a one-week acclimatization period the animals were housed in rooms maintained at 22±2° C. and 30-70% humidity. Water and standard pellet diet were given ad libitum. The animals were randomly divided into seven groups, each group consisting of six animals with less than 20% mean body weight range.
as §1
Following a 21-day treatment with the saw palmetto oil preparations and/or Finasteride, prostate tissues were excised, rinsed and weighed immediately after removal. The PW/BW ratio was calculated using the following equation: PW/BW ratio=(Prostate weight of each animal from experimental group/Body weight of each animal from experimental group)×1000. The percentage of growth inhibition was calculated as follows: 100−[(treated group−control group)/(BPH group−control group)]×100.

SMILES: CC(C)(C)NC(=O)[C@H]1CC[C@H]2[C@@H]3CC[C@H]4NC(=O)C=C[C@]4(C)[C@H]3CC[C@]12C [Finasteride]
- Histological examination of prostate tissue [1]: near normal prostatic glands with mild focal inflammation
- Prostate weight (BPH model rats; 1 mg/kg p.o., 21 days, testosterone 5 mg/kg s.c., mean ± SEM (n = 6)): 0.27 ± 0.01 g
- Inhibition of growth (BPH model rats; 1 mg/kg p.o., 21 days, prostate growth vs BPH and control groups): 93.18%
- Reduction in prostate weight (BPH model rats; Finasteride treatment 1 mg/kg, vs BPH group): 2.51 fold
- Prostate weights, in words (BPH model rats; vs BPH group, p<0.001): reduced considerably
